# Test results taken from PubChem BioAssay (NCI).
# “And” between values parts separate entries of the source, which are not always exact repeats. Identical values can stand only once.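 Values below derive from 48-hour exposures of cells grown in 96-well plates, with endpoints linearly interpolated between the two concentrations bracketing the appropriate inhibition level. GI50 marks 50% less growth. TGI is the concentration that stops growth completely.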
# Key:
# Test in all cases: DTP human tumour cell line panel, 48 h
# M14 melanoma = test system: M14 melanoma
# SW-620 colon = test system: SW-620 colon
# 786-0 renal = test system: 786-0 renal
# UACC-257 melanoma = test system: UACC-257 melanoma
# SF-295 CNS = test system: SF-295 CNS
# IGROV1 ovarian = test system: IGROV1 ovarian
# SNB-75 CNS = test system: SNB-75 CNS
# SF-539 CNS = test system: SF-539 CNS
# A549 NSCLC = test system: A549 NSCLC
# NCI/ADR-RES ovarian = test system: NCI/ADR-RES ovarian
compound,measurement,setting,value
CCOC(=O)Cc1nc2c(=O)[nH]cnc2n1C1OC(COC(C)=O)C(OC(C)=O)C1OC(C)=O (centres undefined),TGI,M14 melanoma,> 100 µM
same,TGI,SW-620 colon,> 100 µM
same,TGI,786-0 renal,> 100 µM
same,TGI,UACC-257 melanoma,> 100 µM
same,TGI,SF-295 CNS,> 100 µM
same,TGI,IGROV1 ovarian,> 100 µM
same,TGI,SNB-75 CNS,> 100 µM
same,TGI,SF-539 CNS,> 100 µM
same,TGI,A549 NSCLC,> 100 µM
same,TGI,NCI/ADR-RES ovarian,> 100 µM
CSc1nc(Br)nc2c1ncn2C1CC(Oc2ccc(C)cc2)C(COc2ccc(C)cc2)O1 (centres undefined),TGI,M14 melanoma,> 100 µM
same,TGI,SW-620 colon,> 100 µM
same,TGI,786-0 renal,> 100 µM
same,TGI,UACC-257 melanoma,> 100 µM
same,TGI,SF-295 CNS,> 100 µM
same,TGI,IGROV1 ovarian,> 100 µM
same,TGI,SNB-75 CNS,94.6 µM
same,TGI,SF-539 CNS,> 100 µM
same,TGI,A549 NSCLC,> 100 µM
same,TGI,NCI/ADR-RES ovarian,> 100 µM
OCc1ccccc1OC1OC(CO)C(O)C(O)C1O (centres undefined),TGI,M14 melanoma,> 100 µM
same,TGI,SW-620 colon,> 100 µM
same,TGI,786-0 renal,> 100 µM
same,TGI,UACC-257 melanoma,> 100 µM
same,TGI,SF-295 CNS,> 100 µM
same,TGI,IGROV1 ovarian,> 100 µM
same,TGI,SNB-75 CNS,> 100 µM
same,TGI,SF-539 CNS,> 100 µM
same,TGI,A549 NSCLC,> 100 µM
same,TGI,NCI/ADR-RES ovarian,> 100 µM
COC1(OC)N=C(N)C2(C#N)/C(=N/N(C)C)CC(C)C12C#N (centres undefined),TGI,M14 melanoma,> 100 µM
same,TGI,SW-620 colon,> 100 µM
same,TGI,786-0 renal,> 100 µM
same,TGI,UACC-257 melanoma,> 100 µM
same,TGI,SF-295 CNS,> 100 µM
same,TGI,IGROV1 ovarian,> 100 µM
same,TGI,SNB-75 CNS,> 100 µM
same,TGI,SF-539 CNS,> 100 µM
same,TGI,A549 NSCLC,> 100 µM
same,TGI,NCI/ADR-RES ovarian,> 100 µM
CNC(=O)OCC1=C(COC(=O)NC)CN(c2ccccc2)C1,TGI,M14 melanoma,> 100 µM
same,TGI,SW-620 colon,> 100 µM
same,TGI,786-0 renal,> 100 µM
same,TGI,UACC-257 melanoma,> 100 µM
same,TGI,SF-295 CNS,> 100 µM
same,TGI,IGROV1 ovarian,> 100 µM
same,TGI,SNB-75 CNS,> 100 µM
same,TGI,SF-539 CNS,> 100 µM
same,TGI,A549 NSCLC,> 100 µM
same,TGI,NCI/ADR-RES ovarian,> 100 µM
COC1=CC2(C=CC1=O)CCN=c1c(O)c3c(c(O)c12)=NC=N3 (centres undefined),TGI,M14 melanoma,> 100 µM
same,TGI,SW-620 colon,> 100 µM
same,TGI,786-0 renal,> 100 µM
same,TGI,UACC-257 melanoma,> 100 µM
same,TGI,SF-295 CNS,> 100 µM
same,TGI,IGROV1 ovarian,> 100 µM
same,TGI,SNB-75 CNS,> 100 µM
same,TGI,SF-539 CNS,> 100 µM
same,TGI,A549 NSCLC,> 100 µM
same,TGI,NCI/ADR-RES ovarian,> 100 µM
CC(=O)OCC1OC(n2c3c(c(-c4ccco4)c(C#N)c2=S)CCCC3)C(OC(C)=O)C(OC(C)=O)C1OC(C)=O (centres undefined),TGI,M14 melanoma,> 100 µM
same,TGI,SW-620 colon,> 100 µM
same,TGI,786-0 renal,52.6 µM
same,TGI,UACC-257 melanoma,> 31.6 µM
same,TGI,SF-295 CNS,21.5 µM
same,TGI,IGROV1 ovarian,> 31.6 µM
same,TGI,SNB-75 CNS,24.6 µM
same,TGI,SF-539 CNS,> 31.6 µM
same,TGI,A549 NSCLC,> 31.6 µM
same,TGI,NCI/ADR-RES ovarian,> 31.6 µM
COC(=O)CCc1ccc2c(c1)CC1(C2)Cc2ccc(CCC(=O)OC)cc2C1,TGI,M14 melanoma,> 100 µM
same,TGI,786-0 renal,> 100 µM
same,TGI,UACC-257 melanoma,> 100 µM
same,TGI,SF-295 CNS,> 100 µM
same,TGI,IGROV1 ovarian,> 100 µM
same,TGI,SNB-75 CNS,> 100 µM
same,TGI,SF-539 CNS,> 100 µM
same,TGI,A549 NSCLC,> 100 µM
same,TGI,NCI/ADR-RES ovarian,> 100 µM
CN(C)CCNc1nc2ccccc2c2c1C(=O)c1ccccc1-2,TGI,M14 melanoma,1.67 µM
same,TGI,SW-620 colon,4.9 µM
same,TGI,786-0 renal,3.66 µM
same,TGI,UACC-257 melanoma,3.7 µM
same,TGI,SF-295 CNS,3.31 µM
same,TGI,IGROV1 ovarian,0.807 µM
same,TGI,SNB-75 CNS,1.68 µM
same,TGI,SF-539 CNS,3.04 µM
same,TGI,A549 NSCLC,2.96 µM
same,TGI,NCI/ADR-RES ovarian,2.06 µM
C=C1c2nc3ccccc3n2C=C(c2ccccc2)N1c1ccc(OC)cc1,TGI,M14 melanoma,52.6 µM
same,TGI,SW-620 colon,> 100 µM
same,TGI,786-0 renal,56.8 µM
same,TGI,UACC-257 melanoma,> 100 µM
same,TGI,SF-295 CNS,25.3 µM
same,TGI,IGROV1 ovarian,35.8 µM
same,TGI,SNB-75 CNS,21.2 µM
same,TGI,SF-539 CNS,26.9 µM
same,TGI,A549 NSCLC,> 100 µM
same,TGI,NCI/ADR-RES ovarian,71.4 µM
Cc1nn(C(=O)c2ccccc2O)c2c1C(c1ccc(O)cc1)SC(N)=N2 (centres undefined),TGI,M14 melanoma,> 10 µM
same,TGI,SW-620 colon,> 10 µM
same,TGI,786-0 renal,> 10 µM
same,TGI,UACC-257 melanoma,> 10 µM
same,TGI,SF-295 CNS,> 10 µM
same,TGI,IGROV1 ovarian,> 7.17 µM
same,TGI,SNB-75 CNS,8.56 µM
same,TGI,SF-539 CNS,> 2.47 µM
same,TGI,A549 NSCLC,> 10 µM
same,TGI,NCI/ADR-RES ovarian,> 10 µM
O=C(O)c1ccc(Nc2cnc3ccc(C(F)(F)F)cc3n2)cc1,TGI,M14 melanoma,> 100 µM
same,TGI,SW-620 colon,46.6 µM
same,TGI,786-0 renal,> 100 µM
same,TGI,UACC-257 melanoma,93.9 µM
same,TGI,SF-295 CNS,45.3 µM
same,TGI,IGROV1 ovarian,28.5 µM
same,TGI,SNB-75 CNS,37.2 µM
same,TGI,SF-539 CNS,58.2 µM
same,TGI,A549 NSCLC,30.8 µM
same,TGI,NCI/ADR-RES ovarian,> 100 µM
Cc1ccc(Nc2nnc3n2S(=O)(=O)c2cc(C)c(Cl)cc2S3)cc1,TGI,M14 melanoma,47.4 µM
same,TGI,SW-620 colon,> 100 µM
same,TGI,786-0 renal,35.5 µM
same,TGI,UACC-257 melanoma,> 100 µM
same,TGI,SF-295 CNS,25.7 µM
same,TGI,IGROV1 ovarian,> 100 µM
same,TGI,SNB-75 CNS,73.4 µM
same,TGI,SF-539 CNS,14.7 µM
same,TGI,A549 NSCLC,61.6 µM
same,TGI,NCI/ADR-RES ovarian,43.5 µM
CN1C/C(=C\c2ccccc2[N+](=O)[O-])C(=O)/C(=C/c2ccccc2[N+](=O)[O-])C1,GI50,M14 melanoma,1.76 µM and 0.298 µM
same,TGI,M14 melanoma,4.17 µM and 0.876 µM
same,GI50,SW-620 colon,0.292 µM
same,TGI,SW-620 colon,0.886 µM and 0.603 µM
same,TGI,786-0 renal,1.01 µM and 0.467 µM
same,GI50,UACC-257 melanoma,0.265 µM and 1.46 µM
same,TGI,UACC-257 melanoma,0.481 µM and 3.5 µM
same,GI50,SF-295 CNS,5.62 µM and 2.46 µM
same,TGI,SF-295 CNS,13.7 µM and 7 µM
same,TGI,IGROV1 ovarian,2.47 µM and 2.1 µM
same,TGI,SNB-75 CNS,6.77 µM and 7.57 µM
same,GI50,SF-539 CNS,0.53 µM and 1.13 µM
same,TGI,SF-539 CNS,2.3 µM and 3.86 µM
same,TGI,A549 NSCLC,14.4 µM and 12.9 µM
same,TGI,NCI/ADR-RES ovarian,> 28.1 µM and 29.4 µM
O=C(Nc1ccccc1)N1N=C(c2ccccc2)C1c1ccccc1 (centres undefined),TGI,M14 melanoma,60.4 µM
same,TGI,SW-620 colon,> 100 µM
same,TGI,786-0 renal,36.6 µM
same,TGI,UACC-257 melanoma,> 100 µM
same,TGI,SF-295 CNS,73.8 µM
same,TGI,IGROV1 ovarian,> 100 µM
same,TGI,SNB-75 CNS,32 µM
same,TGI,SF-539 CNS,34.5 µM
same,TGI,A549 NSCLC,> 100 µM
same,TGI,NCI/ADR-RES ovarian,82.2 µM
Clc1ncc(C(Cl)(Cl)Cl)nc1-c1ccccc1,TGI,M14 melanoma,5.88 µM
same,TGI,SW-620 colon,> 100 µM
same,TGI,786-0 renal,5.77 µM
same,TGI,UACC-257 melanoma,4.76 µM
same,TGI,SF-295 CNS,13.5 µM
same,TGI,IGROV1 ovarian,8.05 µM
same,TGI,SNB-75 CNS,6.24 µM
same,TGI,SF-539 CNS,5.05 µM
same,TGI,A549 NSCLC,22.5 µM
same,TGI,NCI/ADR-RES ovarian,57.7 µM
CCCCCCCC(CC(=O)O)OC(=O)CC(CCCCCCC)OC1OC(C)C(O)C(O)C1OC1OC(C)C(O)C(O)C1O (centres undefined),TGI,M14 melanoma,> 100 µM
same,TGI,SW-620 colon,> 100 µM
same,TGI,786-0 renal,> 100 µM
same,TGI,UACC-257 melanoma,> 100 µM
same,TGI,SF-295 CNS,> 100 µM
same,TGI,IGROV1 ovarian,> 100 µM
same,TGI,SNB-75 CNS,> 100 µM
same,TGI,SF-539 CNS,> 100 µM
same,TGI,A549 NSCLC,> 100 µM
same,TGI,NCI/ADR-RES ovarian,> 100 µM
BrCC[P+](c1ccccc1)(c1ccccc1)c1ccccc1,TGI,M14 melanoma,18 µM
same,TGI,SW-620 colon,34.4 µM
same,TGI,786-0 renal,10.4 µM
same,TGI,UACC-257 melanoma,16.5 µM
same,TGI,SF-295 CNS,> 100 µM
same,TGI,IGROV1 ovarian,29.1 µM
same,TGI,SNB-75 CNS,9.86 µM
same,TGI,SF-539 CNS,35.3 µM
same,TGI,A549 NSCLC,> 100 µM
same,TGI,NCI/ADR-RES ovarian,27.5 µM
CN(C)CCn1c(=O)c2ccc(NCCNCCO)c3c(=O)c4cc(O)ccc4n(c1=O)c23,TGI,M14 melanoma,13.6 µM
same,TGI,SW-620 colon,11.2 µM
same,TGI,786-0 renal,13.2 µM
same,TGI,UACC-257 melanoma,19.2 µM
same,TGI,SF-295 CNS,21.1 µM
same,TGI,IGROV1 ovarian,7.47 µM
same,TGI,SNB-75 CNS,6.2 µM
same,TGI,SF-539 CNS,1.65 µM
same,TGI,A549 NSCLC,33.9 µM
same,TGI,NCI/ADR-RES ovarian,> 100 µM
COc1ccc(C[C@H]2COC(=O)[C@@H]2Cc2cc(OC)c(OC)c(OC)c2)cc1OC,TGI,M14 melanoma,> 100 µM
same,TGI,SW-620 colon,> 100 µM
same,TGI,786-0 renal,> 100 µM
same,TGI,UACC-257 melanoma,> 100 µM
same,TGI,SF-295 CNS,> 100 µM
same,TGI,IGROV1 ovarian,> 100 µM
same,TGI,SNB-75 CNS,> 100 µM
same,TGI,SF-539 CNS,> 100 µM
same,TGI,A549 NSCLC,> 100 µM
same,TGI,NCI/ADR-RES ovarian,> 100 µM
